# According to ChEMBL document CHEMBL1146249, “Antiviral 2,5-disubstituted imidazo[4,5-c]pyridines: further optimization of anti-hepatitis C virus activity” (Bioorg Med Chem Lett, 2007):
# Tests used:
# [1] = Cytotoxicity against Huh 5-2 cells; format: cell-based; details: human
# [2] = Selectivity index, ratio of CC50 for Huh 5-2 cells to EC50 for HCV; format: functional
# [3] = Cytotoxicity against MDBK cells; format: cell-based, Bos taurus; details: cattle
# [4] = system: Bovine viral diarrhea virus 1; assay: Antiviral activity against BVDV in MDBK cells; format: functional, organism-based; details: Bovine viral diarrhea virus isolates and strains
# [5] = Selectivity index, ratio of CC50 for MDBK cells to EC50 for BVDV; format: functional
# [6] = system: Hepatitis C virus; assay: Antiviral activity against HCV in Huh 5-2 cells; format: functional, organism-based, Hepacivirus hominis
Structure (SMILES),CC50 [1] [µM],Ratio CC50/EC50 [2],CC50 [3] [µM],EC50 [4] [µM],Ratio CC50/EC50 [5],EC50 [6] [µM]
Fc1ccccc1-c1nc2ccn(CCOc3ccccc3)cc-2n1,96,2,> 104,0.28,>371,48
Fc1cccc(-c2nc3ccn(Cc4ccc(OC(F)(F)F)cc4)cc-3n2)c1F,81,405,> 100,0.2,>500,0.2
